Data reported in patent US11667602B2, “Compounds and their use” (AstraZeneca AB, priority 2020, dated 2023).
≈ marks a conversion by molar mass, not a printed value. Read-outs that look alike come from different tables or passages of the source.

What was measured:
[1] = target: T1, human RXFP1 (Homo sapiens, UniProt Q9HBX9); test: RXFP1 Hu cAMP (Test A); assay type: cell-based; design: expressed in transfected cells; host or cells: Jump-In T-REx CHO-K1 cells (ThermoFisher), induced with 10 ng/ml doxycycline for 24 h
T1 sequence (Q9HBX9 1-757): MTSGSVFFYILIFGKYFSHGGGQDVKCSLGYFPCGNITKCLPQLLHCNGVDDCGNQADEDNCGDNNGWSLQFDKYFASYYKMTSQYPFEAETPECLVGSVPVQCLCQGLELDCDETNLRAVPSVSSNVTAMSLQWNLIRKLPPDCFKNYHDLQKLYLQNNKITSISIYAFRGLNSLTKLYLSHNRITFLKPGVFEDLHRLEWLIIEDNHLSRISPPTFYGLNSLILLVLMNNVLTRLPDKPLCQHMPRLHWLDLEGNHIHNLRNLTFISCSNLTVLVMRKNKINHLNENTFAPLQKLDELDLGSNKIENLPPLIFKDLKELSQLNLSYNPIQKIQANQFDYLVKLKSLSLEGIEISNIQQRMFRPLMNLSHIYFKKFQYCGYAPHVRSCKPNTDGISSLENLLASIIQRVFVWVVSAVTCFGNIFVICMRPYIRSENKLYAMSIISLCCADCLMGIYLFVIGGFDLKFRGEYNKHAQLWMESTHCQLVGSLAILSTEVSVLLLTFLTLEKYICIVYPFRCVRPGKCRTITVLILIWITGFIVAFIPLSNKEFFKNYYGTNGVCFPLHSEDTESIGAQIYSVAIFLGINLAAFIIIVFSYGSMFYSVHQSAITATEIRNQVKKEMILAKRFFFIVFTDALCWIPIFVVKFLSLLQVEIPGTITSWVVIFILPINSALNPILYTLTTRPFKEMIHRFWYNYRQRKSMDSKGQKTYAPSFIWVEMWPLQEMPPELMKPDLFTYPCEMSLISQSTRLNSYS
Outline: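 CHO-K1 (Jump-In T-REx), RXFP1 induced w/ 10 ng/ml doxycycline 24 h, cryopreserved. 0.5 mM IBMX final. cAMP by HTRF, 2 h RT, std curve.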

[2] = Solubility (Test F); assay type: physicochemical; details: arithmetic mean if run multiple times
Method: The assay was conducted according to the Solubility Assay described in pages 164-167 of Wernevik, J. et al., “A Fully Integrated Assay Panel for Early Drug Metabolism and Pharmacokinetics Profiling”, Assay and Drug Development Technologies, 2020, 18(4), 157-179. Data are reported in Table 36 as solubility ([…]. Where the assay was run multiple times for the same compound, the arithmetic mean is reported.

[3] = Human Plasma Protein Binding (Test B); assay type: in vitro ADME; details: fraction unbound (fu)
Outline: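 Human plasma protein binding run per the published Wernevik et al. (2020) integrated DMPK panel protocol. Values are fraction unbound (fu, % free); repeat runs averaged arithmetically.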

[4] = Human Liver Microsomal Stability (Test C); assay type: in vitro ADME
Outline: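 Human liver microsome incubation per the Wernevik et al. integrated DMPK panel protocol. Intrinsic clearance reported as CLint in μl/min/mg protein, averaged arithmetically over repeat runs.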

[5] = Rat Hepatocyte Stability (Test E); assay type: in vitro ADME; details: geometric mean if run multiple times
Outline: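 Run per the published AstraZeneca-type rat hepatocyte stability protocol (Wernevik et al. panel). Values are mean intrinsic clearance, Clint in μl/min/10^6 cells; geometric mean used for repeated runs.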

[6] = RXFP1 Hu cAMP, read-out: Test A EC50

SMILES: COc1cc(F)c(-c2ccc(OCC(=O)O)nc2)cc1C(=O)N[C@@H]1[C@H]2CC[C@H](C2)[C@@H]1C(=O)Nc1cccc(S(=O)(=O)C(F)(F)F)c1 [Example 241]
- Test A Sinf ([1]; RXFP1 Hu cAMP): 99%
- EC50 [1, 6]: 140 nM
- solubility [2]: 550 µM (≈ 366 µg/mL)
- Test B Human Plasma Protein Binding (% free) [3]: 0.69 % free
- microsomal CLint ([4]; human, liver microsomes): 12 µL/min/mg
- hepatocyte CLint ([5]; rat, hepatocytes): 12 µL/min/1e6 cells

SMILES: COc1cc(C#N)c(O[C@H]2CC[C@@](C)(C(=O)O)CC2)cc1C(=O)N[C@@H]1[C@H]2CC[C@H](C2)[C@@H]1C(=O)NCC1C(C)(C)C1(C)C [Example 84]
- Test A Sinf ([1]; RXFP1 Hu cAMP): 112%
- EC50 [1, 6]: 15 nM
- solubility [2]: 340 µM (≈ 197 µg/mL)
- Test B Human Plasma Protein Binding (% free) [3]: 4 % free
- microsomal CLint ([4]; human, liver microsomes): 160 µL/min/mg
- hepatocyte CLint ([5]; rat, hepatocytes): 19 µL/min/1e6 cells

SMILES: COc1cc(C#N)c(O[C@H]2CC[C@@](C)(C(=O)O)CC2)cc1C(=O)N[C@@H]1[C@H]2CC[C@H](C2)[C@@H]1C(=O)NCC1CCCCCC1 [Example 82]
- Test A Sinf ([1]; RXFP1 Hu cAMP): 114%
- EC50 [1, 6]: 32 nM
- solubility [2]: 330 µM (≈ 191 µg/mL)
- Test B Human Plasma Protein Binding (% free) [3]: 2.5 % free
- microsomal CLint ([4]; human, liver microsomes): 54 µL/min/mg
- hepatocyte CLint ([5]; rat, hepatocytes): 41 µL/min/1e6 cells

SMILES: COc1cc(F)c(O[C@H]2CC[C@@H](C(=O)O)CC2)cc1C(=O)N[C@@H]1[C@H]2CC[C@H](C2)[C@@H]1C(=O)Nc1cccc(OC(F)(F)F)c1F [Example 18]
- Test A Sinf ([1]; RXFP1 Hu cAMP): 105%
- solubility [2]: 400 µM (≈ 251 µg/mL)
- Test B Human Plasma Protein Binding (% free) [3]: 1.2 % free
- microsomal CLint ([4]; human, liver microsomes): 27 µL/min/mg
- hepatocyte CLint ([5]; rat, hepatocytes): 49 µL/min/1e6 cells

SMILES: COc1cc(F)c(-c2ccc([C@@H]3C[C@H]3C(=O)O)nc2)cc1C(=O)N[C@@H]1[C@H]2CC[C@H](C2)[C@@H]1C(=O)Nc1cccc(S(=O)(=O)C(F)(F)F)c1 (single isomer, unassigned) [Example 261, (1R*,2R*)-2-(5-(2-Fluoro-4-methoxy-5-(((1S,2R,3S,4R)-3-((3-((trifluoromethyl)sulfonyl)phenyl)carbamoyl)bicyclo[2.2.1]heptan-2-yl)carbamoyl)phenyl)pyridin-2-yl)cyclopropane-1-carboxylic acid]
- Test A Sinf ([1]; RXFP1 Hu cAMP): 107%
- EC50 [1, 6]: 130 nM
- solubility [2]: > 1000 µM
- Test B Human Plasma Protein Binding (% free) [3]: 0.89 % free
- microsomal CLint ([4]; human, liver microsomes): 57 µL/min/mg
- hepatocyte CLint ([5]; rat, hepatocytes): 84 µL/min/1e6 cells

SMILES: COc1cc(C#N)c(O[C@H]2CC[C@@](C)(C(=O)O)CC2)cc1C(=O)N[C@@H]1[C@H]2CC[C@H](C2)[C@@H]1C(=O)NC[C@H](F)CO [Example 89]
- EC50 [1, 6]: > 5000 nM
- solubility [2]: 780 µM (≈ 426 µg/mL)
- Test B Human Plasma Protein Binding (% free) [3]: 50 % free
- microsomal CLint ([4]; human, liver microsomes): < 3 µL/min/mg
- hepatocyte CLint ([5]; rat, hepatocytes): 17 µL/min/1e6 cells

SMILES: COc1cc(F)c(O[C@H]2CC[C@@H](C(=O)O)CC2)cc1C(=O)N[C@@H]1[C@H]2CC[C@H](C2)[C@@H]1C(=O)Nc1cc(Cl)cnn1 [Example 30, (1S,4s)-4-(5-(((1S,2R,3S,4R)-3-((5-Chloropyridazin-3-yl)carbamoyl)bicyclo[2.2.1]heptan-2-yl)carbamoyl)-2-fluoro-4-methoxyphenoxy)cyclohexane-1-carboxylic acid]
- EC50 [1, 6]: > 40000 nM
- solubility [2]: > 1000 µM
- Test B Human Plasma Protein Binding (% free) [3]: 3.6 % free
- microsomal CLint ([4]; human, liver microsomes): < 3 µL/min/mg
- hepatocyte CLint ([5]; rat, hepatocytes): 18 µL/min/1e6 cells

SMILES: COc1cc(F)c(O[C@H]2CC[C@@H](C(=O)O)CC2)cc1C(=O)N[C@@H]1[C@H]2CC[C@H](C2)[C@@H]1C(=O)Nc1cc(F)c(F)c(F)c1 [Example 187]
- Test A Sinf ([1]; RXFP1 Hu cAMP): 105%
- EC50 [1, 6]: 250 nM
- solubility [2]: 580 µM (≈ 336 µg/mL)
- Test B Human Plasma Protein Binding (% free) [3]: 0.41 % free
- microsomal CLint ([4]; human, liver microsomes): 15 µL/min/mg
- hepatocyte CLint ([5]; rat, hepatocytes): 21 µL/min/1e6 cells

SMILES: COc1cc(F)c(O[C@H]2CC[C@@H](C(=O)O)CC2)cc1C(=O)N[C@@H]1[C@H]2CC[C@H](C2)[C@@H]1C(=O)Nc1cccc(OC(F)F)c1 [Example 195]
- Test A Sinf ([1]; RXFP1 Hu cAMP): 131%
- EC50 [1, 6]: 830 nM
- solubility [2]: 860 µM (≈ 508 µg/mL)
- Test B Human Plasma Protein Binding (% free) [3]: 1.6 % free
- microsomal CLint ([4]; human, liver microsomes): 28 µL/min/mg
- hepatocyte CLint ([5]; rat, hepatocytes): 130 µL/min/1e6 cells

SMILES: COc1cc(F)c(O[C@H]2CC[C@@H](C(=O)O)CC2)cc1C(=O)N[C@@H]1[C@H]2CC[C@H](C2)[C@@H]1C(=O)Nc1ccc(C#N)c(C(F)(F)F)c1 [Example 28]
- Test A Sinf ([1]; RXFP1 Hu cAMP): 96%
- EC50 ([1]; Test A EC50, RXFP1 Hu cAMP): 44 nM
- solubility [2]: 690 µM (≈ 426 µg/mL)
- Test B Human Plasma Protein Binding (% free) [3]: 0.94 % free
- microsomal CLint ([4]; human liver microsomes): 32 µL/min/mg
- hepatocyte CLint ([5]; rat hepatocytes): 51 µL/min/1e6 cells

SMILES: COc1cc(C#N)c(O[C@H]2CC[C@@](C)(C(=O)O)CC2)cc1C(=O)N[C@@H]1[C@H]2CC[C@H](C2)[C@@H]1C(=O)N[C@H]1C[C@@H](C)C1 [Example 73]
- Test A Sinf ([1]; RXFP1 Hu cAMP): 114%
- EC50 [1, 6]: 220 nM
- solubility [2]: 850 µM (≈ 457 µg/mL)
- Test B Human Plasma Protein Binding (% free) [3]: 12 % free
- microsomal CLint ([4]; human, liver microsomes): 11 µL/min/mg
- hepatocyte CLint ([5]; rat, hepatocytes): 18 µL/min/1e6 cells

SMILES: COc1cc(F)c(O[C@H]2CC[C@@H](C(=O)O)CC2)cc1C(=O)N[C@@H]1[C@H]2CC[C@H](C2)[C@@H]1C(=O)Nc1cccc(C(F)(F)F)c1C [Example 24]
- Test A Sinf ([1]; RXFP1 Hu cAMP): 97%
- EC50 [1, 6]: 1000 nM
- solubility [2]: 590 µM (≈ 358 µg/mL)
- Test B Human Plasma Protein Binding (% free) [3]: 1.8 % free
- microsomal CLint ([4]; human, liver microsomes): 29 µL/min/mg
- hepatocyte CLint ([5]; rat, hepatocytes): 45 µL/min/1e6 cells

SMILES: COc1cc(F)c(-c2ccc3c(c2)OC[C@H]3CC(=O)O)cc1C(=O)N[C@@H]1[C@H]2CC[C@H](C2)[C@@H]1C(=O)Nc1cccc(S(=O)(=O)C(F)(F)F)c1 [Example 253]
- Test A Sinf ([1]; RXFP1 Hu cAMP): 102%
- EC50 [1, 6]: 31 nM
- solubility [2]: > 1000 µM
- Test B Human Plasma Protein Binding (% free) [3]: <0.32 % free
- microsomal CLint ([4]; human, liver microsomes): 24 µL/min/mg
- hepatocyte CLint ([5]; rat, hepatocytes): 8.8 µL/min/1e6 cells

SMILES: COc1cc(C#N)c(O[C@H]2C[C@]3(C2)C[C@H](C(=O)O)C3)cc1C(=O)N[C@@H]1[C@H]2CC[C@H](C2)[C@@H]1C(=O)NCC1(C)CCC1 (single isomer, unassigned) [Example 7, (2R*,4r,6R)-6-(2-Cyano-4-methoxy-5-(((1S,2R,3S,4R)-3-(((1-methylcyclobutyl)methyl)carbamoyl)bicyclo[2.2.1]heptan-2-yl)carbamoyl)phenoxy)spiro[3.3]heptane-2-carboxylic acid]
- Test A Sinf ([1]; RXFP1 Hu cAMP): 86%
- EC50 [1, 6]: 1300 nM
- solubility [2]: 820 µM (≈ 451 µg/mL)
- Test B Human Plasma Protein Binding (% free) [3]: 4.4 % free
- microsomal CLint ([4]; human, liver microsomes): 23 µL/min/mg
- hepatocyte CLint ([5]; rat, hepatocytes): 23 µL/min/1e6 cells
